Values of other authors in US11610144B2, “Biosignature discovery for substance use disorder using statistical learning” (BioRealm LLC, priority 2018, dated 2023).
Entries after “also recorded” stand apart in the source; their conditions may differ.

Assays:
smokers = conditions: meta-analyses of RCTs
[1] = test system: smokers, slow and normal nicotine metabolizers; conditions: NMR from direct biochemical measurement

Row | Structure (SMILES) | smoking cessation efficacy compared with placebo (smokers) | response to treatment, VAR versus NRT [1]
1 | CC(NC(C)(C)C)C(=O)c1cccc(Cl)c1 (stereo not drawn) [BUP, bupropion] | significantly more effective than placebo | –
2 | c1cnc2cc3c(cc2n1)[C@@H]1CNC[C@H]3C1 [VAR, varenicline] | significantly more effective than placebo | responded significantly better than those randomized to NRT; also recorded: responded significantly better to VAR than to NRT
